Measured values: patent US20070293477A1, “Novel Compounds” (SMITHKLINE BEECHAM CORPORATION, priority 2004, published 2007)

target: T1, TRPV4 channel receptors (Bos taurus, UniProt A0A8F4X677); experiment: Ca2+ influx, Fura-2 fluorescence on FlexStation in bovine articular chondrocytes; assay type: cell-based; conditions: Fura-2, FlexStation
T1 construct: obtained using this method in bovine articular chondrocytes; endogenous in cells; host or cells: bovine articular chondrocytes
Source text: Ca^2+ influx mediated through TRPV4 channel receptors can be measured using articular chondrocytes from such species as, but not limited to, human, rat, canine, rabbit, monkey, and bovine, using standard techniques in the art such as, but not limited to, Fura-2 (Invitrogen/Molecular Probes, Eugene, Oreg.) fluorescence using a FlexStation (manufactured by Molecular Devices, Sunnyvale, Calif.). Table 1 lists biological data for several representative compounds obtained using this method in bovine articular chondrocytes.
(§1) All exemplary compounds of the present invention were assessed using at least one of the biological assays presented above. Compounds presented in the Examples had EC50 values of about 0.01 μM to about 30 μM as measured by Flex Station using bovine articular chondrocytes and pEC50 values between about 4.5 to about 7.0 as measured by FLIPR assay using TRPV4 expressing HEK cells.

T1 sequence (A0A8F4X677 1-871): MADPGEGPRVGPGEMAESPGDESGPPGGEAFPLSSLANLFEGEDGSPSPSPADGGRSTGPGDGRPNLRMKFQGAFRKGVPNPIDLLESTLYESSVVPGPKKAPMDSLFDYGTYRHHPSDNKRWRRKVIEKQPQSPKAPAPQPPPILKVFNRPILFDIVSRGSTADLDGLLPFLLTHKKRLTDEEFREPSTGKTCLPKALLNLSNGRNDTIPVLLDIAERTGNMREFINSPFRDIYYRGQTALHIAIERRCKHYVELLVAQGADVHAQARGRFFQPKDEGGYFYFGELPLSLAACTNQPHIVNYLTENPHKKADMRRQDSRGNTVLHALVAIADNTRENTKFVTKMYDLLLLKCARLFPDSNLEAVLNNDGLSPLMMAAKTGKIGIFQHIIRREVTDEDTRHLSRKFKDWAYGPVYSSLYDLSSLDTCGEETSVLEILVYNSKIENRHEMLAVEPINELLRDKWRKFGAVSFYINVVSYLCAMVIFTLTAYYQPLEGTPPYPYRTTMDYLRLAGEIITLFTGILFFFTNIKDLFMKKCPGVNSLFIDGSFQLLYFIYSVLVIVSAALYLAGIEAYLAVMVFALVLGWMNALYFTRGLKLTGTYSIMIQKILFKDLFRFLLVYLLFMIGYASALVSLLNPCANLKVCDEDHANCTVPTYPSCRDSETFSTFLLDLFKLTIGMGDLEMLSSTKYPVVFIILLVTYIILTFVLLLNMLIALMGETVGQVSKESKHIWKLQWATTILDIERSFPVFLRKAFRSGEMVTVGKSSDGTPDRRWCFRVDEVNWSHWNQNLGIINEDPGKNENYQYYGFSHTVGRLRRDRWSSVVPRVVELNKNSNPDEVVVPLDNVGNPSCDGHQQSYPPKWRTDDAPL

Structure (SMILES) | EC50 [µM]
CC(C)C[C@H](NC(=O)c1cc2ccccc2s1)C(=O)N[C@@H]1CCCN(S(=O)(=O)c2ccc(C#N)cc2)CC1 [Example 8, N-{(1S)-1-[({(4R)-1-[(4-Cyanophenyl)sulfonyl]hexahydro-1H-azepin-4-yl}amino)carbonyl]-3-methylbutyl}-1-benzothiophene-2-carboxamide] | 10 to 30
CC(C)C[C@H](NC(=O)c1cc2ccccc2n1C)C(=O)N(C)C1CCCN(S(=O)(=O)c2ccccc2C#N)CC1 (stereo partly drawn) [Example 11, N-((1S)-1-{[{1-[(2-Cyanophenyl)sulfonyl]hexahydro-1H-azepin-4-yl}(methyl)amino]carbonyl}-3-methylbutyl)-1-methyl-1H-indole-2-carboxamide] | 1.01 to 10
CC(C)C[C@H](NC(=O)c1cc2ccccc2s1)C(=O)N[C@@H]1CCCN(S(=O)(=O)c2ccccc2C#N)CC1 [Example 5, N-{(1S)-1-[({(4R)-1-[(2-cyanophenyl)sulfonyl]hexahydro-1H-azepin-4-yl}amino)carbonyl]-3-methylbutyl}-1-benzothiophene-2-carboxamide] | 0.14 to 1

target: T2, TRPV4 channel receptor (Homo sapiens, UniProt Q9HBA0); experiment: FLIPR assay using TRPV4 expressing HEK cells; assay type: cell-based; conditions: FLIPR method; pEC50 = −log10(EC50 μM)
T2 construct: expressed in transfected cells; host or cells: HEK cells
Source text: Other techniques used to measure TRPV4 channel receptor activation in chondrocytes include, but are not limited to: FLIPR assay, measuring a compound's capability to reduce the amount of ADAMTSs produced and/or released in response to a catabolic stimulus by a cell comprising a TRPV4 channel receptor; measuring a compound's capability to reduce the amount of MMPs produced and/or released in response to a catabolic stimulus by a cell comprising a TRPV4 channel receptor; measuring a compound's capability to effect the amount of nitric oxide (NO) produced in response to a catabolic stimulus by a cell comprising a TRPV4 channel receptor; and measuring a compound's capability to attenuate the inhibition of matrix synthesis in response to a catabolic stimulus by a cell comprising a TRPV4 channel receptor.
as §1

T2 sequence (Q9HBA0 whole entry): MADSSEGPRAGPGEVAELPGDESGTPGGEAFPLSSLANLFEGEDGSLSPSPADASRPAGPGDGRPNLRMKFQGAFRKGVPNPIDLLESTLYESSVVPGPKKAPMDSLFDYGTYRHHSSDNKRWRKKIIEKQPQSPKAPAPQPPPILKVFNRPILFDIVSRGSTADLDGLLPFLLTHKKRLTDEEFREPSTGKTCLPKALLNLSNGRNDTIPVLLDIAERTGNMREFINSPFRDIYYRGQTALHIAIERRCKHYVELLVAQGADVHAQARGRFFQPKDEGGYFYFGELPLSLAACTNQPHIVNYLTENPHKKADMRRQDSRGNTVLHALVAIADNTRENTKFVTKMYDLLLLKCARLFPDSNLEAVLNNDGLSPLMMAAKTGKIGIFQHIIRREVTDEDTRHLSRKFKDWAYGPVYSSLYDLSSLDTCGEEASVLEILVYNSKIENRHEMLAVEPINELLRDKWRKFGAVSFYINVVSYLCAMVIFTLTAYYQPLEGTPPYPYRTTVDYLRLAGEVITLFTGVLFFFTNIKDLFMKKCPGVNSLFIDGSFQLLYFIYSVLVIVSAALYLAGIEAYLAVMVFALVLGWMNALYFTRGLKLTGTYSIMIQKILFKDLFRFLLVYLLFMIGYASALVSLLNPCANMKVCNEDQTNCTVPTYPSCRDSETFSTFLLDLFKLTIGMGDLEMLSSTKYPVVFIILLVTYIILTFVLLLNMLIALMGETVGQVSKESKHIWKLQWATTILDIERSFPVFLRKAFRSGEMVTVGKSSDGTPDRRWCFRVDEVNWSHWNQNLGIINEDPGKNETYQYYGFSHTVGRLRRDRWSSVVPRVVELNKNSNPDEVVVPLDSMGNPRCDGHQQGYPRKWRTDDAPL

Structure (SMILES) | EC50 [µM]
CC(C)C[C@H](NC(=O)c1cc2ccccc2s1)C(=O)N[C@@H]1CCCN(S(=O)(=O)c2ccc(Cl)cc2Cl)CC1 [Example 6, N-{(1S)-1-[({(4R)-1-[(2,4-Dichlorophenyl)sulfonyl]hexahydro-1H-azepin-4-yl}amino)carbonyl]-3-methylbutyl}-1-benzothiophene-2-carboxamide] | 0.1 to 0.794
CC(C)C[C@H](NC(=O)c1cc2ccccc2n1C)C(=O)N(C)C1CCCN(S(=O)(=O)c2ccccc2C#N)CC1 (stereo partly drawn) [Example 11, N-((1S)-1-{[{1-[(2-Cyanophenyl)sulfonyl]hexahydro-1H-azepin-4-yl}(methyl)amino]carbonyl}-3-methylbutyl)-1-methyl-1H-indole-2-carboxamide] | 1 to 7.94
CC(C)C[C@H](NC(=O)c1cc2ccccc2n1C)C(=O)NC1CCCN(S(=O)(=O)c2ccc(Cl)cc2)CC1 (mixture of isomers) [Example 3, 1-Methyl-1H-indole-2-carboxylic acid {(S)-1-[1-(4-chloro-benzenesulfonyl)-azepan-4-ylcarbamoyl]-3-methyl-butyl}-amide] | 10 to 31.6
